In patent US20070111966A1, “Method for the treatment and/or prevention of urinary disorders” (priority 2005, published 2007):

Tests used:
[1] = test system: Sprague-Dawley rats; test: Example 1: consumption of drink after oral gavage of diuretic polyols; type: in vivo; settings: for water consumption compared with the control (in words): after polyol gavage; for water consumption over four days: control batch A 11.2
Method: (§1) A batch of rats were orally administered doses of diuretic polyols so as to measure the diuretic effect of said polyols and their possible influence on the amount of water drunk. The study was carried out on a batch of thirty rats, for 4 days, and the trial doses were administered at a rate of 2 ml per animal and per day of solutions at 250 g/litre of polyols. Water is distributed to the animals ad libitum. The amounts of urine output and of drink consumed are measured by weighing.
(§2) The amounts of drink are expressed in grams per animal and per day. Diuresis is expressed in millilitres as a function of time. • Batch A: control batch • Batch B: erythritol gavage • Batch C: mannitol gavage • Batch D: isosorbide gavage • Batch E: 1/1 isosorbide-mannitol mixture
Consumption of Drink (Means on Ten Rats)

[2] = test system: Sprague-Dawley rats; test: Example 1: diuresis after oral gavage of diuretic polyols; type: in vivo; settings: for Diuresis 45 min / Diuresis 1 h 35 min / Diuresis 3 h / Diuresis 5 h / Diuresis 7 h / Cumulative diuresis over 24 h / Diuresis Before gavage: means on ten rats; for Diuresis 45 min: control A 0.9; for Diuresis 1 h 35 min / Diuresis 7 h: control A 0.6; for Diuresis 3 h: control A 0.4; for Diuresis 5 h: control A 0.7; for Cumulative diuresis over 24 h: control A 11.7; for Diuresis Before gavage: control A 3.2
Method: as §1, §2
Diuresis (Means on Ten Rats, in Millilitres)

[3] = gavage 2 ml per animal and per day of 250 g/litre solution, means on ten rats

| SMILES | water consumption compared with the control (in words) [1] | water consumption ([1]; gavage 2 ml per animal and per day of 250 g/litre solution, means on ten rats, control batch A 24.8) [g/animal/day] | Diuresis 45 min [2] [millilitres] | Diuresis 1 h 35 min [2] [millilitres] | Diuresis 3 h [2] [millilitres] | Diuresis 5 h [2] [millilitres] | Diuresis 7 h [2] [millilitres] | Cumulative diuresis over 24 h [2] [millilitres] | time from which an increase in diuresis is observed ([2]; after gavage) [h] | Diuresis Before gavage [2] [millilitres] | water consumption over four days [1, 3] [g/animal/day] |
| --- | --- | --- | --- | --- | --- | --- | --- | --- | --- | --- | --- |
| OC[C@@H](O)[C@@H](O)CO [B (erythritol), erythritol] | not greater than the control | 17.9 | 0.21 | 0.99 | 1.38 | 1.21 | 0.83 | 18.43 | ≥ 3 | 1.02 | – |
| OC[C@@H](O)[C@@H](O)[C@H](O)[C@H](O)CO [C (mannitol), mannitol] | very slightly greater than the control | – | 0.3 | 0.3 | 0.7 | 0.5 | 1.3 | 16.5 | – | 3.0 | 13.9 |
| O[C@@H]1CO[C@H]2[C@@H]1OC[C@@H]2O [D (isosorbide), isosorbide] | very slightly greater than the control | – | 1.5 | 1.1 | 1.2 | 1.1 | 0.6 | 13.0 | – | 2.4 | 13.1 |
